O=C1c2cccc(O)c2C(=O)c2c(O)cc(CO)cc21
solubility (mole fraction)
Settings | 278.15 K | 283.15 K | 288.15 K | 293.15 K | 298.15 K | 303.15 K | 308.15 K | 313.15 K | 318.15 K
in ethanol | 1.72e-05 | 2.11e-05 | 2.45e-05 | 3.09e-05 | 3.74e-05 | 4.36e-05 | 5.05e-05 | 6.2e-05 | 7.56e-05
in methanol | 1.66e-06 | 2.23e-06 | 3.1e-06 | 4.29e-06 | 5.39e-06 | 7.71e-06 | 1.13e-05 | 1.6e-05 | 2.33e-05
in n-butanol | 4.59e-05 | 5.17e-05 | 6.49e-05 | 7.71e-05 | 9.05e-05 | 0.000102 | 0.000122 | 0.000137 | 0.00016
in n-pentanol | 7e-05 | 8.33e-05 | 0.0001 | 0.000118 | 0.000138 | 0.000158 | 0.00018 | 0.000207 | 0.000245
in n-propanol | 1.82e-05 | 2.49e-05 | 3.07e-05 | 4e-05 | 5.26e-05 | 6.56e-05 | 7.38e-05 | 9.21e-05 | 0.000116
in sec-butanol | 1.62e-05 | 2.05e-05 | 2.71e-05 | 3.67e-05 | 4.52e-05 | 5.44e-05 | 6.76e-05 | 8.02e-05 | 9.79e-05
in water | 2.2e-07 | 3.21e-07 | 4.43e-07 | 5.69e-07 | 8.07e-07 | 1.21e-06 | 1.64e-06 | 2.22e-06 | 2.82e-06

Reference: BigSolDB 2.1
